# From ChEMBL document CHEMBL5725356, “Anti-fibrotic pyridinones” (2017)
# pEC50: −log10 of the molar value.
# Assay: ET-1 Assay: Fibroblasts (primary human lung and dermal, HFL-1, 3T3 etc) are seeded in 96-well plates at ~15000 cells/well and serum starved for 0-48 hours. After media exchange, compounds serially diluted in DMSO are added to the cells. After a brief incubation of ~30 min, stimulants (TGFb, serum, LPA etc) are added followed by further incubation for 16-48 hours. Media is then harvested and stored frozen in plate format for later endothelin-1 (ET-1) determination by ELISA. Toxicity measurements are made using the ATPlite kit (Perkin-Elmer). ET-1 is quantified using an ELISA kit (R&D Systems). The amount of ET-1 produced in the assay wells are back-calculated using the ELISA standard. The ability of a compound to inhibit ET-1 production is typically analyzed by fitting dose-response curves to a 4-parameter logistic function to obtain an EC50 value.
# Conditions: HFL1
Compound,pEC50,EC50
CCn1nnc2c(-c3cn[nH]c3)cn(-c3ccc(OC(F)(F)F)cc3)c(=O)c21,> 4.30,
Cn1cc(-c2cn(-c3ccc(C#N)cc3)c(=O)c3c2ccn3C)cn1,< 3.70,
CC(=O)Nc1cc(=O)n(-c2ccc(OC(F)(F)F)cc2)cc1-c1cnn(C)c1,< 3.70,
Cc1cn(C)c2c(=O)n(-c3ccc(OC(F)(F)F)cc3)cc(-c3ccc(F)cc3)c12,> 4.30,
Cc1cc(=O)n(-c2ccc(OC(F)(F)F)cc2)cc1-c1cccc2c1OCO2,> 4.30,
O=c1ccc(-c2ccccc2)cn1-c1ccccc1Cl,,in the range around 125 µM
Cn1cc(-c2cn(-c3ccc(OC(F)(F)F)cc3)c(=O)cc2Oc2cccc(Cl)c2)cn1,> 4.30,
O=c1ccc(Br)cn1-c1ccc(Cl)cc1,< 3.70,
O=c1ccc2c(n1-c1ccccc1)CCC2,< 3.70,
Cn1cc(-c2cn(-c3ccc(OC(F)(F)F)cc3)c(=O)cc2NCc2cnccn2)cn1,,in the range around 125 µM
Cn1cc(-c2cn(-c3ccc(OC(F)(F)F)cc3)c(=O)cc2NCc2ccc(Cl)cc2)cn1,,in the range around 125 µM
O=C1CNCCN1CCOc1cc(=O)n(-c2ccc(OC(F)(F)F)cc2)cc1-c1ccc(F)cc1,< 3.70,
CN1C(=O)COc2c(-c3ccc(F)cc3)cn(-c3ccc(OC(F)(F)F)cc3)c(=O)c21,< 3.70,
Cc1cc(=O)n(-c2cccc3c2OCO3)cc1-c1cnn(C)c1,< 3.70,
Cn1cc(-c2cn(-c3ccc(OC(F)(F)F)cc3)c(=O)c3cc[nH]c23)cn1,> 4.30,
CCn1nnc2c(-c3cnn(C)c3)cn(-c3ccc(OC(F)(F)F)cc3)c(=O)c21,> 4.30,
O=c1c2nccnc2c(-c2cn[nH]c2)cn1-c1ccc(OC(F)(F)F)cc1,> 4.30,
Cc1cn(-c2ccccc2)c(=O)c2c1CCCC2,,in the range around 125 µM
Cc1cc(=O)n(-c2ccc(OC(F)(F)F)cc2)cc1-c1ccc2c(c1)OCCO2,,in the range around 125 µM
Cn1cc(-c2cn(-c3ccc(Cl)cc3)c(=O)c3cccnc23)cn1,< 3.70,
O=c1ccc(-c2cncnc2)cn1-c1ccc(F)cc1,< 3.70,
Cc1cc(=O)n(-c2ccc(OC(F)(F)F)cc2)cc1-c1ccc2nonc2c1,,in the range around 125 µM
COc1ccc(-c2ccc(=O)n(-c3cccc(OC)c3)c2)cc1,,in the range around 125 µM
Cn1cc(-c2c[nH]c(=O)cc2NCc2ncccn2)cn1,> 4.30,
COc1ccc(-n2cc(-c3cn[nH]c3)ccc2=O)cc1,< 3.70,
CCOc1ccc(-n2cc(-c3c(C)n[nH]c3C)ccc2=O)c(C)c1,,in the range around 125 µM

Compound,pEC50,EC50
O=c1ccc(-c2ccc(F)cc2)cn1Cc1ccccc1,> 4.30,
CCCCOC(=O)Nc1cc(=O)n(-c2ccc(OC(F)(F)F)cc2)cc1-c1cnn(C)c1,,in the range around 125 µM
COCCOc1cc(=O)n(-c2ccc(OC(F)(F)F)cc2)cc1-c1cnn(C)c1,< 3.70,
Cn1cc(-c2cn(-c3ccc(OC(F)(F)F)cc3)c(=O)c3c2nnn3CCF)cn1,,in the range around 125 µM
O=C(c1ccccc1)n1cc(-c2ccc(=O)n(-c3ccccc3)c2)cn1,< 3.70,
O=c1c2cccnc2c(-c2ccc(F)cc2)cn1-c1ccc(OC(F)(F)F)cc1,< 3.70,
CCOc1ccc(-n2cc(-c3cnn(C)c3)c(OC)cc2=O)c(C)c1,> 4.30,
CCOc1ccc(CNc2cc(=O)n(-c3ccc(OC(F)(F)F)cc3)cc2-c2cnn(C)c2)c(F)c1,> 4.30,
Cn1cc(-c2cn(-c3ccc(OC(F)(F)F)cc3)c(=O)cc2NCc2ccc(C#N)cc2F)cn1,> 4.30,
O=c1ccc(C2CCC2)cn1-c1ccccc1,< 3.70,
Cc1cc(=O)n(-c2ccc(NC(N)=O)cc2)cc1-c1ccc(F)cc1,,in the range around 125 µM
Cn1cc(-c2cc(=O)n(-c3ccc(OC(F)(F)F)cc3)cc2-c2cnn(C)c2)cn1,,in the range around 125 µM
Cn1cc(-c2cn(-c3ccc(OC(F)(F)F)cc3)c(=O)cc2N2CCc3ccccc3C2)cn1,,in the range around 125 µM
O=c1ccc(-c2ccnnc2)cn1-c1ccc(OC(F)(F)F)cc1,,in the range around 125 µM
CC(=O)c1ccc(=O)n(-c2ccccc2Cl)c1,,in the range around 125 µM
Cn1cc(-c2cn(-c3ccc(Cl)cc3)c(=O)cc2Oc2ccccc2)cn1,> 4.30,
Cc1cc(=O)n(-c2ccc(Cl)cc2)cc1-c1ccnnc1,< 3.70,
Cc1nc2c(=O)n(-c3ccc(OC(F)(F)F)cc3)ccc2o1,< 3.70,
Cc1c(-c2ccc(=O)n(-c3ccc(OC(F)(F)F)cc3)c2)cnn1C,> 4.30,
CCn1nc2c(-c3ccc(F)cc3)cn(-c3ccc(OC(F)(F)F)cc3)c(=O)c2n1,< 3.70,
Cc1ccc(=S)n(-c2ccc(F)cc2)c1,< 3.70,
Cc1cc(=O)n(-c2ccc3c(c2)OCCO3)cc1-c1cnn(C)c1,< 3.70,
O=c1cc(NCc2ncccn2)ccn1-c1ccc(OC(F)(F)F)cc1,< 3.70,
Cc1cc(=O)n(-c2ccc(OC(F)(F)F)cc2)cc1-c1cccc2c1OC(F)(F)O2,> 4.30,
Cn1cc(-c2cn(-c3ccc(C#N)cc3)c(=O)c3nccnc23)cn1,< 3.70,
N#Cc1ccc(-n2cc(-c3cn[nH]c3)c3cc[nH]c3c2=O)cc1,,in the range around 125 µM

Compound,pEC50,EC50
Cc1cc(=O)n(-c2ccc(OC(F)(F)F)cc2)cc1-c1ccc2c(ccn2C)c1,< 3.70,
N#Cc1ccc(-n2cc(-c3cn[nH]c3)c3ncccc3c2=O)cc1,< 3.70,
Cc1ccc(=O)n(-c2cc(F)c(F)c(F)c2)c1,< 3.70,
Cc1n[nH]c(C)c1-c1ccc(=O)n(-c2cccc(C(F)(F)F)c2)c1,,in the range around 125 µM
O=c1c2ccc(C(F)(F)F)nc2c(-c2ccc(F)cc2)cn1-c1ccc(OC(F)(F)F)cc1,< 3.70,
Cc1cc(=O)n(-c2cccc3c2OCO3)cc1-c1ccc(F)cc1,,in the range around 125 µM
Cc1cc(-c2ccc(F)cc2)cn(-c2ccccc2)c1=O,> 4.30,
Cc1cc(=O)[nH]cc1-c1cccc2c1OC(F)(F)O2,> 4.30,
Cc1cc(=O)n(-c2ccc(OC(F)(F)F)cc2)cc1-c1ccc2nccn2c1,,in the range around 125 µM
O=c1cc(Cl)c(-c2ccc(F)cc2)cn1-c1ccc(OC(F)(F)F)cc1,> 4.30,
CCOc1ccc(-n2cc(-c3ccc(F)cc3)c(C)cc2=O)c(C)c1,,in the range around 125 µM
Cc1n[nH]c(C)c1-c1ccc(=O)n(-c2ccc(OC(F)(F)F)cc2)c1,,in the range around 125 µM
O=c1c2c(c(-c3cn[nH]c3)cn1-c1ccc(OC(F)(F)F)cc1)CCCC2,,in the range around 125 µM
CCCOC(=O)Nc1cc(=O)n(-c2ccc(OC(F)(F)F)cc2)cc1-c1ccc(F)cc1,< 3.70,
Cn1cc(-c2cn(-c3ccc(OC(F)(F)F)cc3)c(=O)cc2NCc2ncccn2)cn1,< 3.70,
CC(C)Oc1ccc(-n2cc(-c3cn[nH]c3)ccc2=O)cc1,,in the range around 125 µM
CC(C)Oc1ccc(-n2cc(-c3ccc(S(N)(=O)=O)cc3)ccc2=O)cc1,< 3.70,
Cc1cc(=O)n(-c2ccc(Cl)cc2)cc1-c1cn[nH]c1,< 3.70,
CC(=O)c1ccc(=O)n(-c2ccc(F)cc2)c1,< 3.70,
O=c1ccc(Br)cn1-c1cccc(C(F)(F)F)c1,< 3.70,
CC(=O)Nc1cc(=O)n(-c2ccc(OC(F)(F)F)cc2)cc1-c1ccc(F)cc1,< 3.70,
O=c1ccc(-c2cn[nH]c2)cn1-c1ccc(OC(F)(F)F)cc1,> 4.30,
Cc1cc(=O)n(-c2ccccc2F)cc1-c1ccc(F)cc1,,in the range around 125 µM
CCOc1ccc(-n2cc(C(F)(F)F)ccc2=O)c(C)c1,,in the range around 125 µM
CCn1c(=O)oc2cc(-c3cn(-c4ccc(OC(F)(F)F)cc4)c(=O)cc3C)ccc21,> 4.30,
Cc1cc(=O)n(-c2ccc(OC(F)(F)F)cc2C)cc1-c1ccc(F)cc1,> 4.30,

Compound,pEC50,EC50
Cc1cc(=O)n(-c2ccc(F)c(NC(N)=O)c2)cc1-c1ccc(F)cc1,> 4.30,
COc1cccc(-n2cc(-c3c(C)n[nH]c3C)ccc2=O)c1,,in the range around 125 µM
Cc1ccc(=S)n(-c2ccc(OC(F)(F)F)cc2)c1,,in the range around 125 µM
Cc1cc(=O)n(-c2ccc(F)cc2)cc1-c1ccc(OC(F)(F)F)cc1,,in the range around 125 µM
CC(=O)Nc1cccc(-n2cc(Br)ccc2=O)c1,< 3.70,
O=c1ccc(-c2cccc(Cl)c2)cn1-c1cccc(F)c1,> 4.30,
CCc1cc(=O)n(-c2ccc(OC(F)(F)F)cc2)cc1-c1cnn(C)c1,,in the range around 125 µM
CC(C)n1cc(-c2ccc(=O)n(-c3ccccc3)c2)cn1,< 3.70,
O=c1ccc(-c2cn[nH]c2)cn1-c1cccc(F)c1,< 3.70,
Cn1cc(-c2cn(-c3ccc(OC(F)(F)F)cc3)c(=O)cc2N2CCOCC2)cn1,> 4.30,
O=c1ccc(C2CCCC2)cn1-c1ccccc1,,in the range around 125 µM
O=c1ccc(Br)cn1-c1ccc(OC(F)(F)F)cc1,< 3.70,
O=c1ccc(C(F)(F)F)cn1-c1ccccc1Cl,< 3.70,
COCCOCCOCCOc1ccc(-n2cc(C)ccc2=O)cc1,< 3.70,
COc1ccc(-n2cc(C)ccc2=S)cc1,< 3.70,
Cn1cc(-c2cnc(=O)n(-c3ccc(OC(F)(F)F)cc3)c2)cn1,< 3.70,
Cn1cc(-c2ccc(=O)n(-c3ccc(OC(F)(F)F)cc3)n2)cn1,< 3.70,
O=c1ccc(-c2cccc(Cl)c2)cn1-c1ccncc1,< 3.70,
Cn1cc(-c2cn(-c3ccc(OC(F)(F)F)cc3)c(=O)c3c2OCC(=O)N3)cn1,< 3.70,
Cc1cc(=O)n(-c2ccc(OC(F)(F)F)cc2)cc1-c1ccc(Cl)c(Cl)c1,,in the range around 125 µM
O=c1c2[nH]cnc2c(-c2cn[nH]c2)cn1-c1ccc(OC(F)(F)F)cc1,> 4.30,
Cc1cc(=O)n(-c2ccc(OC(F)(F)F)cc2)cc1-c1cn[nH]c1,> 4.30,
Cn1cc(-c2cn(-c3ccc(OC(F)(F)F)cc3)c(=O)cc2Oc2ccc(F)cc2)cn1,> 4.30,
CC(C)Oc1ccc(-n2cc(-c3ccc(F)cc3)ccc2=O)cc1,,in the range around 125 µM
